Assays:
Hepatotoxicity [1] = experiment: Literature-mined compound from Fourches et al multi-species drug-induced liver injury (DILI) dataset, effect in non-rodents
Hepatotoxicity [2] = experiment: Literature-mined compound from Fourches et al multi-species drug-induced liver injury (DILI) dataset, effect in rodents; details: rodentia
Hepatotoxicity [3] = experiment: Literature-mined compound from Fourches et al multi-species drug-induced liver injury (DILI) dataset, effect in humans; details: human

Molecule: O=C(CCCCCCC(=O)Nc1ccccc1)NO [VORINOSTAT]
- Hepatotoxicity (Hepatotoxicity [1]): no drug-induced liver injury reported
- Hepatotoxicity (Hepatotoxicity [2]): drug-induced liver injury reported
- Hepatotoxicity (Hepatotoxicity [3]): drug-induced liver injury reported

Molecule: CC(=O)CC(c1ccccc1)c1c(O)c2ccccc2oc1=O (centres undefined) [WARFARIN]
- Hepatotoxicity (Hepatotoxicity [1]): no drug-induced liver injury reported
- Hepatotoxicity (Hepatotoxicity [2]): drug-induced liver injury reported
- Hepatotoxicity (Hepatotoxicity [3]): drug-induced liver injury reported

Molecule: CCOC(=O)CN[C@@H](C(=O)N1CC[C@H]1C(=O)NCc1ccc(/C(N)=N\O)cc1)C1CCCCC1 [XIMELAGATRAN]
- Hepatotoxicity (Hepatotoxicity [1]): no drug-induced liver injury reported
- Hepatotoxicity (Hepatotoxicity [2]): no drug-induced liver injury reported
- Hepatotoxicity (Hepatotoxicity [3]): drug-induced liver injury reported

Molecule: Cc1cccc(C)c1NC(=O)c1cc(S(N)(=O)=O)c(Cl)cc1O [XIPAMIDE]
- Hepatotoxicity (Hepatotoxicity [1]): no drug-induced liver injury reported
- Hepatotoxicity (Hepatotoxicity [2]): drug-induced liver injury reported
- Hepatotoxicity (Hepatotoxicity [3]): no drug-induced liver injury reported

Molecule: COC(=O)[C@@H]1[C@H]2C[C@H]3c4[nH]c5ccccc5c4CCN3C[C@@H]2CC[C@@H]1O [YOHIMBINE]
- Hepatotoxicity (Hepatotoxicity [1]): no drug-induced liver injury reported
- Hepatotoxicity (Hepatotoxicity [2]): drug-induced liver injury reported
- Hepatotoxicity (Hepatotoxicity [3]): no drug-induced liver injury reported

Molecule: COc1cc(C(=O)NS(=O)(=O)c2ccccc2C)ccc1Cc1cn(C)c2ccc(NC(=O)OC3CCCC3)cc12 [ZAFIRLUKAST]
- Hepatotoxicity (Hepatotoxicity [1]): no drug-induced liver injury reported
- Hepatotoxicity (Hepatotoxicity [2]): no drug-induced liver injury reported
- Hepatotoxicity (Hepatotoxicity [3]): drug-induced liver injury reported

Molecule: Nc1ccn([C@H]2CC[C@@H](CO)O2)c(=O)n1 [ZALCITABINE]
- Hepatotoxicity (Hepatotoxicity [1]; Liver): no drug-induced liver injury reported
- Hepatotoxicity (Hepatotoxicity [2]; Liver): drug-induced liver injury reported
- Hepatotoxicity (Hepatotoxicity [3]; Liver): drug-induced liver injury reported

Molecule: Cc1cn([C@H]2C[C@H](N=[N+]=[N-])[C@@H](CO)O2)c(=O)[nH]c1=O [ZIDOVUDINE]
- Hepatotoxicity (Hepatotoxicity [1]): no drug-induced liver injury reported
- Hepatotoxicity (Hepatotoxicity [2]): drug-induced liver injury reported
- Hepatotoxicity (Hepatotoxicity [3]): drug-induced liver injury reported

Molecule: CC(c1cc2ccccc2s1)N(O)C(N)=O (centres undefined) [ZILEUTON]
- Hepatotoxicity (Hepatotoxicity [1]): no drug-induced liver injury reported
- Hepatotoxicity (Hepatotoxicity [2]): drug-induced liver injury reported
- Hepatotoxicity (Hepatotoxicity [3]): drug-induced liver injury reported

Molecule: CC(=O)[O][Zn][O]C(C)=O [ZINC ACETATE ANHYDROUS]
- Hepatotoxicity (Hepatotoxicity [1]; Liver): no drug-induced liver injury reported
- Hepatotoxicity (Hepatotoxicity [2]; Liver): drug-induced liver injury reported
- Hepatotoxicity (Hepatotoxicity [3]; Liver): no drug-induced liver injury reported

Molecule: Cc1ccc(-c2nc3ccc(C)cn3c2CC(=O)N(C)C)cc1 [ZOLPIDEM]
- Hepatotoxicity (Hepatotoxicity [1]): no drug-induced liver injury reported
- Hepatotoxicity (Hepatotoxicity [2]): no drug-induced liver injury reported
- Hepatotoxicity (Hepatotoxicity [3]): drug-induced liver injury reported

Molecule: BLEOMYCIN
- Hepatotoxicity (Hepatotoxicity [1]): no drug-induced liver injury reported
- Hepatotoxicity (Hepatotoxicity [2]): drug-induced liver injury reported
- Hepatotoxicity (Hepatotoxicity [3]): drug-induced liver injury reported

Molecule: CARBOPLATIN
- Hepatotoxicity (Hepatotoxicity [1]): no drug-induced liver injury reported
- Hepatotoxicity (Hepatotoxicity [2]): drug-induced liver injury reported
- Hepatotoxicity (Hepatotoxicity [3]): drug-induced liver injury reported

Molecule: CHOLESTYRAMINE
- Hepatotoxicity (Hepatotoxicity [1]): no drug-induced liver injury reported
- Hepatotoxicity (Hepatotoxicity [2]): drug-induced liver injury reported
- Hepatotoxicity (Hepatotoxicity [3]): drug-induced liver injury reported

Molecule: DALTEPARIN SODIUM
- Hepatotoxicity (Hepatotoxicity [1]): no drug-induced liver injury reported
- Hepatotoxicity (Hepatotoxicity [2]): drug-induced liver injury reported
- Hepatotoxicity (Hepatotoxicity [3]): no drug-induced liver injury reported

Molecule: GADOBENATE DIMEGLUMINE
- Hepatotoxicity (Hepatotoxicity [1]): no drug-induced liver injury reported
- Hepatotoxicity (Hepatotoxicity [2]): no drug-induced liver injury reported
- Hepatotoxicity (Hepatotoxicity [3]): drug-induced liver injury reported

Molecule: GENTAMICIN
- Hepatotoxicity (Hepatotoxicity [1]): no drug-induced liver injury reported
- Hepatotoxicity (Hepatotoxicity [2]): drug-induced liver injury reported
- Hepatotoxicity (Hepatotoxicity [3]): no drug-induced liver injury reported

Molecule: GLATIRAMER ACETATE
- Hepatotoxicity (Hepatotoxicity [1]): no drug-induced liver injury reported
- Hepatotoxicity (Hepatotoxicity [2]): drug-induced liver injury reported
- Hepatotoxicity (Hepatotoxicity [3]): drug-induced liver injury reported

Molecule: GOLD SODIUM THIOMALATE
- Hepatotoxicity (Hepatotoxicity [1]): no drug-induced liver injury reported
- Hepatotoxicity (Hepatotoxicity [2]): drug-induced liver injury reported
- Hepatotoxicity (Hepatotoxicity [3]): drug-induced liver injury reported

Molecule: HEPARIN
- Hepatotoxicity (Hepatotoxicity [1]): drug-induced liver injury reported
- Hepatotoxicity (Hepatotoxicity [2]): drug-induced liver injury reported
- Hepatotoxicity (Hepatotoxicity [3]): drug-induced liver injury reported

Molecule: HYALURONIC ACID
- Hepatotoxicity (Hepatotoxicity [1]): no drug-induced liver injury reported
- Hepatotoxicity (Hepatotoxicity [2]): drug-induced liver injury reported
- Hepatotoxicity (Hepatotoxicity [3]): drug-induced liver injury reported

Molecule: IRON(II) CITRATE
- Hepatotoxicity (Hepatotoxicity [1]): no drug-induced liver injury reported
- Hepatotoxicity (Hepatotoxicity [2]): drug-induced liver injury reported
- Hepatotoxicity (Hepatotoxicity [3]): no drug-induced liver injury reported

Molecule: IVERMECTIN
- Hepatotoxicity (Hepatotoxicity [1]): no drug-induced liver injury reported
- Hepatotoxicity (Hepatotoxicity [2]): no drug-induced liver injury reported
- Hepatotoxicity (Hepatotoxicity [3]): drug-induced liver injury reported

Molecule: LACTOSE, ANHYDROUS
- Hepatotoxicity (Hepatotoxicity [1]): no drug-induced liver injury reported
- Hepatotoxicity (Hepatotoxicity [2]): drug-induced liver injury reported
- Hepatotoxicity (Hepatotoxicity [3]): no drug-induced liver injury reported

Molecule: LECITHIN
- Hepatotoxicity (Hepatotoxicity [1]): no drug-induced liver injury reported
- Hepatotoxicity (Hepatotoxicity [2]): drug-induced liver injury reported
- Hepatotoxicity (Hepatotoxicity [3]): drug-induced liver injury reported

Molecule: MANGAFODIPIR TRISODIUM
- Hepatotoxicity (Hepatotoxicity [1]): no drug-induced liver injury reported
- Hepatotoxicity (Hepatotoxicity [2]): no drug-induced liver injury reported
- Hepatotoxicity (Hepatotoxicity [3]): drug-induced liver injury reported

Molecule: METHYLCOBALAMIN
- Hepatotoxicity (Hepatotoxicity [1]): no drug-induced liver injury reported
- Hepatotoxicity (Hepatotoxicity [2]): drug-induced liver injury reported
- Hepatotoxicity (Hepatotoxicity [3]): no drug-induced liver injury reported

Molecule: OXALIPLATIN
- Hepatotoxicity (Hepatotoxicity [1]): no drug-induced liver injury reported
- Hepatotoxicity (Hepatotoxicity [2]): no drug-induced liver injury reported
- Hepatotoxicity (Hepatotoxicity [3]): drug-induced liver injury reported

Molecule: POLYETHYLENE GLYCOL
- Hepatotoxicity (Hepatotoxicity [1]): no drug-induced liver injury reported
- Hepatotoxicity (Hepatotoxicity [2]): drug-induced liver injury reported
- Hepatotoxicity (Hepatotoxicity [3]): drug-induced liver injury reported

Molecule: POLYMYXIN B
- Hepatotoxicity (Hepatotoxicity [1]): no drug-induced liver injury reported
- Hepatotoxicity (Hepatotoxicity [2]): drug-induced liver injury reported
- Hepatotoxicity (Hepatotoxicity [3]): drug-induced liver injury reported

Molecule: POLYVINYL ALCOHOL
- Hepatotoxicity (Hepatotoxicity [1]): drug-induced liver injury reported
- Hepatotoxicity (Hepatotoxicity [2]): no drug-induced liver injury reported
- Hepatotoxicity (Hepatotoxicity [3]): no drug-induced liver injury reported

Molecule: PORFIMER SODIUM
- Hepatotoxicity (Hepatotoxicity [1]): no drug-induced liver injury reported
- Hepatotoxicity (Hepatotoxicity [2]): drug-induced liver injury reported
- Hepatotoxicity (Hepatotoxicity [3]): no drug-induced liver injury reported

Molecule: SILYMARIN
- Hepatotoxicity (Hepatotoxicity [1]): no drug-induced liver injury reported
- Hepatotoxicity (Hepatotoxicity [2]): drug-induced liver injury reported
- Hepatotoxicity (Hepatotoxicity [3]): drug-induced liver injury reported

Molecule: SPIRAMYCIN
- Hepatotoxicity (Hepatotoxicity [1]): no drug-induced liver injury reported
- Hepatotoxicity (Hepatotoxicity [2]): no drug-induced liver injury reported
- Hepatotoxicity (Hepatotoxicity [3]): drug-induced liver injury reported

Molecule: TYLOXAPOL
- Hepatotoxicity (Hepatotoxicity [1]): no drug-induced liver injury reported
- Hepatotoxicity (Hepatotoxicity [2]): drug-induced liver injury reported
- Hepatotoxicity (Hepatotoxicity [3]): no drug-induced liver injury reported

Molecule: VITAMIN B12
- Hepatotoxicity (Hepatotoxicity [1]): no drug-induced liver injury reported
- Hepatotoxicity (Hepatotoxicity [2]): no drug-induced liver injury reported
- Hepatotoxicity (Hepatotoxicity [3]): drug-induced liver injury reported

Molecule: VITAMIN E
- Hepatotoxicity (Hepatotoxicity [1]): drug-induced liver injury reported
- Hepatotoxicity (Hepatotoxicity [2]): drug-induced liver injury reported
- Hepatotoxicity (Hepatotoxicity [3]): drug-induced liver injury reported

Molecule: VITAMIN K
- Hepatotoxicity (Hepatotoxicity [1]): no drug-induced liver injury reported
- Hepatotoxicity (Hepatotoxicity [2]): drug-induced liver injury reported
- Hepatotoxicity (Hepatotoxicity [3]): drug-induced liver injury reported

From ChEMBL document CHEMBL1697731, “Cheminformatics analysis of assertions mined from literature that describe drug-induced liver injury in different species” (Chem Res Toxicol, 2010)
